Where “and” joins values, the source holds several entries; their conditions need not be identical. Equal values may be shown once.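 Protocol summary: plate cells (96-well), add compound at 5 concentrations, incubate 48 h, interpolate endpoints linearly. GI50: concentration for 50% inhibition of growth.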 Calls of active or inactive are those of the source. No stated cut-off is given here; in the data, active = GI50 up to about 1.1 µM and inactive = higher.
Columns and labels:
Assay in all cases: inhibition of tumour cell growth, NCI panel, 48 h
[1] = system: 786-0
[2] = system: A549
[3] = system: CAKI-1
[4] = system: COLO 205
[5] = system: EKVX
[6] = system: HCT-15
[7] = system: HOP-62
[8] = system: Malme-3M
[9] = system: NCI-H226
[10] = system: OVCAR-4
[11] = system: OVCAR-8
[12] = system: SF-268
[13] = system: SK-MEL-28
[14] = system: SK-MEL-2
[15] = system: SK-MEL-5
[16] = system: UACC-62
[17] = system: UO-31
[18] = system: HCT-116

Row | SMILES | GI50 [1] | GI50 [2] | GI50 [3] | GI50 [4] | GI50 [5] | GI50 [6] [µM] | GI50 [7] | GI50 [8] | GI50 [9] | GI50 [10] | GI50 [11] | GI50 [12] | GI50 [13] | GI50 [14] | GI50 [15] | GI50 [16] | GI50 [17] | GI50 [18]
1 | CSC1CC2C(CC1(C)SC)C2(C)C (stereo not drawn) | 64.9 µM (inactive) | 32.7 µM (inactive) | > 100 µM (inactive) | 37.3 µM (inactive) | 30.2 µM (inactive) | 51.3 | > 100 µM (inactive) | 41.8 µM (inactive) | 24.7 µM (inactive) | 62.8 µM (inactive) | 39.5 µM (inactive) | > 100 µM (inactive) | > 100 µM (inactive) | 23.2 µM (inactive) | 24.4 µM (inactive) | 60.7 µM (inactive) | 19.9 µM (inactive) | 
2 | COc1cc(-c2cc(=O)c3cc(C)c(C)c(C(=O)O)c3o2)cc(OC)c1OC | > 100 µM (inactive) | > 100 µM (inactive) |  | > 100 µM (inactive) | > 100 µM (inactive) | > 100 | > 100 µM (inactive) | > 100 µM (inactive) |  | > 100 µM (inactive) | > 100 µM (inactive) | > 100 µM (inactive) | > 100 µM (inactive) | > 100 µM (inactive) | > 100 µM (inactive) | > 100 µM (inactive) | > 100 µM (inactive) | > 100 µM (inactive)
3 | CCCC(=O)c1c(NOC2OC(COC(C)=O)C(OC(C)=O)C(OC(C)=O)C2OC(C)=O)nc(OC)n(C)c1=O (stereo not drawn) | > 100 µM (inactive) | > 100 µM (inactive) |  | > 100 µM (inactive) | > 100 µM (inactive) | > 100 | > 100 µM (inactive) |  | > 100 µM (inactive) | > 100 µM (inactive) | > 100 µM (inactive) | > 100 µM (inactive) | > 100 µM (inactive) | > 100 µM (inactive) | > 100 µM (inactive) | > 100 µM (inactive) | 6.1 µM (inactive) | > 100 µM (inactive)
4 | O=c1[nH]cnc2c1nnn2C1C=C(CO)C(O)C1O (stereo not drawn) | > 100 µM (inactive) | > 100 µM (inactive) | > 100 µM (inactive) | > 100 µM (inactive) | > 100 µM (inactive) | > 100 | > 100 µM (inactive) |  | > 100 µM (inactive) | > 100 µM (inactive) | > 100 µM (inactive) | 74.1 µM (inactive) | > 100 µM (inactive) | > 100 µM (inactive) | > 100 µM (inactive) | > 100 µM (inactive) | > 100 µM (inactive) | 53.7 µM (inactive)
5 | Cc1ccc(S(=O)(=O)OCC23CCC(C4CC42)C2CC23)cc1 (stereo not drawn) | > 100 µM (inactive) | 80.4 µM (inactive) | > 100 µM (inactive) | 95.9 µM (inactive) |  | > 100 | 52.7 µM (inactive) | 75.5 µM (inactive) | 95.7 µM (inactive) | 28.1 µM (inactive) | > 100 µM (inactive) | 67.9 µM (inactive) | > 100 µM (inactive) |  | 31.6 µM (inactive) | 65.6 µM (inactive) | 44.2 µM (inactive) | 87.7 µM (inactive)
6 | C[C@]12CCC3[C@@H](CC[C@@H]4c5nonc5CC[C@]34C)C1CC[C@@H]2O (stereo partly drawn) | 25.3 µM (inactive) | 25.5 µM (inactive) | 19.8 µM (inactive) | 30.4 µM (inactive) | 23.8 µM (inactive) | 28.4 | 28.4 µM (inactive) | 24.5 µM (inactive) | 38.3 µM (inactive) | 27.3 µM (inactive) | 35.8 µM (inactive) | 29.6 µM (inactive) | 21.1 µM (inactive) | 22.6 µM (inactive) | 18.4 µM (inactive) | 30.9 µM (inactive) | > 10 µM (inactive) | 
7 | COc1cc(/C=C2\NC(=S)C3Cc4c(OC)c(C)c(OC)c(OC)c4C2N3C)c(OC)c(C)c1OC (stereo not drawn) | 73.1 µM (inactive) | 50.6 µM (inactive) | 58.1 µM (inactive) | 16.5 µM (inactive) | 36.8 µM (inactive) |  | > 100 µM (inactive) | 29 µM (inactive) | 22.6 µM (inactive) | > 100 µM (inactive) | 32.5 µM (inactive) | 95.3 µM (inactive) | > 100 µM (inactive) | 36.2 µM (inactive) | 24.5 µM (inactive) | 98.4 µM (inactive) | 21.2 µM (inactive) | 33.7 µM (inactive)
8 | CCOC(=O)C(C(=O)c1ccccc1-c1ccccc1C(=O)O)=P(c1ccccc1)(c1ccccc1)c1ccccc1 | 37.8 µM (inactive) | 17.8 µM (inactive) |  | 19.1 µM (inactive) | 32.9 µM (inactive) | 25.7 | 18.8 µM (inactive) | 22.4 µM (inactive) | 24.4 µM (inactive) | 18 µM (inactive) | 16.9 µM (inactive) | 41.6 µM (inactive) | 18.7 µM (inactive) | 20.6 µM (inactive) | 15.5 µM (inactive) | 17.4 µM (inactive) | > 10 µM (inactive) | 18.7 µM (inactive)
9 | CCN(CC)CC(C)(C)C(=O)/C=C/c1cccc(/C=C/C(=O)C(C)(C)CN(CC)CC)c1 | 0.579 µM (active) | 1.33 µM (inactive) | 0.286 µM (active) | 0.247 µM (active) | 1.16 µM (inactive) | 0.461 | 2.31 µM (inactive) | 1.59 µM (inactive) | 1.76 µM (inactive) | 0.442 µM (active) | 0.333 µM (active) | 0.429 µM (active) | 1.42 µM (inactive) |  | 1.59 µM (inactive) | 1.74 µM (inactive) | 1.75 µM (inactive) | 0.361 µM (active)
10 | Cc1cc2c(c(C#N)c1C)NC(=O)CCC2=O | > 100 µM (inactive) | > 100 µM (inactive) | > 100 µM (inactive) | > 100 µM (inactive) | > 100 µM (inactive) | > 100 | > 100 µM (inactive) |  |  | > 100 µM (inactive) | > 100 µM (inactive) |  | > 100 µM (inactive) | > 100 µM (inactive) |  | > 100 µM (inactive) | 16.5 µM (inactive) | > 100 µM (inactive)
11 | COc1ccc(-c2cc(-c3ccco3)c(C#N)c(=O)n2C2OC(OC(=O)c3ccccc3)C(OC(=O)c3ccccc3)C2OC(=O)c2ccccc2)cc1 (stereo not drawn) | > 100 µM (inactive) |  | > 100 µM (inactive) | > 100 µM (inactive) | > 100 µM (inactive) | > 100 | 52.6 µM (inactive) | > 100 µM (inactive) | > 100 µM (inactive) | > 100 µM (inactive) | > 100 µM (inactive) | > 10 µM (inactive) | > 100 µM (inactive) | > 100 µM (inactive) | > 100 µM (inactive) | > 10 µM (inactive) | 46 µM (inactive) | 40.2 µM (inactive)
12 | C=CC1(C(=O)O)CCC(C(C)(C)C)CC1 (stereo not drawn) | > 100 µM (inactive) | > 100 µM (inactive) | > 100 µM (inactive) | > 100 µM (inactive) | > 100 µM (inactive) | > 100 | > 100 µM (inactive) | > 100 µM (inactive) | > 100 µM (inactive) | > 100 µM (inactive) | > 100 µM (inactive) | > 100 µM (inactive) |  | > 100 µM (inactive) | > 100 µM (inactive) | > 100 µM (inactive) | > 100 µM (inactive) | > 100 µM (inactive)
13 | CC(=O)OCC12CC(CC1OC(C)=O)c1ccccc12 (stereo not drawn) | > 100 µM (inactive) | > 100 µM (inactive) | > 100 µM (inactive) | > 100 µM (inactive) |  | > 100 | > 100 µM (inactive) | > 100 µM (inactive) | > 100 µM (inactive) | > 100 µM (inactive) | > 100 µM (inactive) | > 100 µM (inactive) | > 100 µM (inactive) |  | > 100 µM (inactive) | > 100 µM (inactive) | > 100 µM (inactive) | > 100 µM (inactive)
14 | C[C@@H]1C[C@@H]2C(=O)N(c3ccccc3)C(=O)[C@@H]2c2[nH]c3ccc(Br)cc3c21 | 39.2 µM (inactive) | 33.6 µM (inactive) | 27.4 µM (inactive) | > 100 µM (inactive) | 36.9 µM (inactive) | 34.3 | 23.3 µM (inactive) | 39.4 µM (inactive) |  | 21.2 µM (inactive) | 21.8 µM (inactive) | 41.5 µM (inactive) | > 100 µM (inactive) | 55.3 µM (inactive) | 50.1 µM (inactive) | 84.7 µM (inactive) | 45.9 µM (inactive) | 30.2 µM (inactive)
15 | C[C@@H]1CC[C@@]2(C)OC(c3ccccc3)[C@H](CO)N2C1=O (stereo partly drawn) | > 100 µM (inactive) | > 100 µM (inactive) | > 100 µM (inactive) | > 100 µM (inactive) | > 100 µM (inactive) | > 100 | > 100 µM (inactive) | > 100 µM (inactive) |  | > 100 µM (inactive) | > 100 µM (inactive) | > 100 µM (inactive) | > 100 µM (inactive) | > 100 µM (inactive) | > 100 µM (inactive) | > 100 µM (inactive) |  | > 100 µM (inactive)
16 | O=c1ncccn1[C@@H]1O[C@H](CO)[C@@H](O)[C@@H]1F | > 100 µM (inactive) | > 100 µM (inactive) | > 100 µM (inactive) | > 100 µM (inactive) | > 100 µM (inactive) |  | > 68.5 µM (inactive) | > 100 µM (inactive) and > 67.1 µM (inactive) | > 100 µM (inactive) | > 100 µM (inactive) | > 100 µM (inactive) and > 95.9 µM (inactive) | > 100 µM (inactive) | > 64 µM (inactive) | > 100 µM (inactive) | > 100 µM (inactive) |  |  | 
17 | CCOC(=O)C(Cc1cn(S(=O)(=O)c2ccccc2)c2ccccc12)(NC(C)=O)C(=O)OCC | 72.8 µM (inactive) | 36.2 µM (inactive) | 49.1 µM (inactive) | 25 µM (inactive) |  | 42.5 | 27.2 µM (inactive) | 37.9 µM (inactive) | 21.3 µM (inactive) | 33.3 µM (inactive) | 33 µM (inactive) | 40 µM (inactive) | 42.6 µM (inactive) | 30.6 µM (inactive) | 15.8 µM (inactive) | 27.9 µM (inactive) | 17.1 µM (inactive) | 24.7 µM (inactive)

Source: ChEMBL document CHEMBL1201862, “PubChem BioAssay data set” (2004)
